Results on two molecules are retold here after ChEMBL document CHEMBL4507268 (2021).

Assay [1] deals with Sigma intracellular receptor 2 (Homo sapiens, UniProt Q5BJF2). Nature of the assay: GPCRScan assay: inhibition of Sigma 2. More on the design: radioligand conc. used [nm] 5.0, parental cells HEKT.
For assay [2], the target named is Tyrosine-protein kinase Lck (Homo sapiens) (UniProt P06239). Conditions: Compound concentration 1.0 uM.
Assay [3] concerns the target Transient receptor potential cation channel subfamily M member 7 (Homo sapiens) (UniProt Q96QT4). The conditions noted are these: Compound concentration 1.0 uM.
Assay [4] deals with Serine/threonine-protein kinase SBK1 (Homo sapiens) (UniProt Q52WX2). The conditions noted are these: Compound concentration 1.0 uM.
Assay [5] has as its target Dual specificity mitogen-activated protein kinase kinase 2 (Homo sapiens) (UniProt P36507). Conditions: Compound concentration 1.0 uM.
In assay [6] the target is Aurora kinase B (Homo sapiens) (UniProt Q96GD4). The conditions noted are these: Compound concentration 1.0 uM.
The target in assay [7] is T1, Interleukin-1 receptor-associated kinase 4 (Homo sapiens) (UniProt Q9NWZ3).
T1 sequence (whole entry): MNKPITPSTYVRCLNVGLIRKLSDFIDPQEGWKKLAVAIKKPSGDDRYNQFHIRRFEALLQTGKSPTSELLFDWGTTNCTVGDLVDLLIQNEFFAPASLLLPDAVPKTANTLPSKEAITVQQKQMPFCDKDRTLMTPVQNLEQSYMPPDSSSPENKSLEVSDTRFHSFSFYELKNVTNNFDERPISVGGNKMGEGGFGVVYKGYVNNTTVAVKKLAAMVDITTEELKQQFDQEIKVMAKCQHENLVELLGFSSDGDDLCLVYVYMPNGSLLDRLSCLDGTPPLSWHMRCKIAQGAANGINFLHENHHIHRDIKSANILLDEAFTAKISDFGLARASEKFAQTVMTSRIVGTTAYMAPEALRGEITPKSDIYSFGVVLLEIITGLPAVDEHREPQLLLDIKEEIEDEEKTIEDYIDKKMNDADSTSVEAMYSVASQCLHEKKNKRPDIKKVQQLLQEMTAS
The conditions noted are these: Compound concentration 1.0 uM.

Assay [8] concerns the target Calcium/calmodulin-dependent protein kinase type 1 (Homo sapiens) (UniProt Q14012). The conditions noted are these: Compound concentration 1.0 uM.
Assay [9] addresses T2, Mitogen-activated protein kinase 12 (Homo sapiens) (UniProt P53778).
T2 sequence (whole entry): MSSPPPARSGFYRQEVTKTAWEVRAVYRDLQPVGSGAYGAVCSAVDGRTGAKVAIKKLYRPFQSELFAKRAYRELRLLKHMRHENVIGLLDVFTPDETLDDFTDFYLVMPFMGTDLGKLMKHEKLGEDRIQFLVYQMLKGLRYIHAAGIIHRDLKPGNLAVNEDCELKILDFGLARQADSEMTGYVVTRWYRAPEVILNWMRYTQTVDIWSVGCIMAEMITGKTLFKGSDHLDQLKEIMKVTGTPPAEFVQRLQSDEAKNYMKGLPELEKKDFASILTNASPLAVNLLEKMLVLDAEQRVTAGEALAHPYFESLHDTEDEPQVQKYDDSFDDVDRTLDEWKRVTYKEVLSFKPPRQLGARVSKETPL
The conditions noted are these: Compound concentration 1.0 uM.

Assay [10] deals with Dual specificity mitogen-activated protein kinase kinase 1 (Homo sapiens) (UniProt Q02750). The conditions noted are these: Compound concentration 1.0 uM.
Assay [11] deals with CDK3/cyclin E (Homo sapiens) (UniProt P24864+O96020+Q00526). The conditions noted are these: Compound concentration 1.0 uM.
The target in assay [12] is Wee1-like protein kinase 2 (Homo sapiens) (UniProt P0C1S8). The conditions noted are these: Compound concentration 1.0 uM.
The target of assay [13] is Mitogen-activated protein kinase kinase kinase kinase 4 (Homo sapiens) (UniProt O95819). Conditions: Compound concentration 1.0 uM.
Assay [14] concerns the target Cyclin-dependent kinase 2/cyclin A (Homo sapiens) (UniProt P24941+P20248+P78396). The conditions noted are these: Compound concentration 1.0 uM.
In assay [15] the target is Serine/threonine-protein kinase B-raf (Homo sapiens) (UniProt P15056). The conditions noted are these: Compound concentration 1.0 uM.
For assay [16], the target named is Ribosomal protein S6 kinase alpha-2 (Homo sapiens) (UniProt Q15349). The conditions noted are these: Compound concentration 1.0 uM.
For assay [17], the target named is CDK12/Cyclin K (Homo sapiens) (UniProt O75909+Q9NYV4). Conditions: Compound concentration 1.0 uM.
For assay [18], the target named is T3, Serine/threonine-protein kinase PLK4 (Homo sapiens) (UniProt O00444).
T3 sequence (whole entry): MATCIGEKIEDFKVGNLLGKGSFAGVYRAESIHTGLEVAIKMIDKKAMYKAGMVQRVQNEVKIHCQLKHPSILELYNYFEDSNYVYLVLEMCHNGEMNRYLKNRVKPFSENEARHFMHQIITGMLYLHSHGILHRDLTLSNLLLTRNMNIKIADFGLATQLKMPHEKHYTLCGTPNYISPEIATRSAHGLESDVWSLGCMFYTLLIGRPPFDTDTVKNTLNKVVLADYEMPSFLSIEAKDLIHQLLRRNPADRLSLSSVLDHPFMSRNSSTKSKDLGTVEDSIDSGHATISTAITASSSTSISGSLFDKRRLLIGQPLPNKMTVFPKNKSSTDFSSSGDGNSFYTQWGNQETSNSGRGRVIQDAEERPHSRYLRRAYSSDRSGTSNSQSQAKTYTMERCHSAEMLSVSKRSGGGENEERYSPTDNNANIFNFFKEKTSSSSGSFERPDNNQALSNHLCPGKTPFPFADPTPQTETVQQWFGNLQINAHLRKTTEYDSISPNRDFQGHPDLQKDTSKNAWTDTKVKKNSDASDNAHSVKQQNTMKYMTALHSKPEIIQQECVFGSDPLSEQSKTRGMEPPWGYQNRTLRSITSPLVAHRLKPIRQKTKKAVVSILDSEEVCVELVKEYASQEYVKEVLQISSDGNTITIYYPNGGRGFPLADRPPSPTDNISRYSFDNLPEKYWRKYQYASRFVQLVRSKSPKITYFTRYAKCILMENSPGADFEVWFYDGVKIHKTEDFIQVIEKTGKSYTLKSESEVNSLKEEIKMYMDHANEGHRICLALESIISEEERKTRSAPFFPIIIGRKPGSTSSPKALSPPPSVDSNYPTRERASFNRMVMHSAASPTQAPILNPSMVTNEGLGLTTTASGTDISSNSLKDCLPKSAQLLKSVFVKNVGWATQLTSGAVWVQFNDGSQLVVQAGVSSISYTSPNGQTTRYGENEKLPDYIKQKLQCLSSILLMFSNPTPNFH
The conditions noted are these: Compound concentration 1.0 uM.

In assay [19] the target is Receptor-type tyrosine-protein kinase FLT3 (Homo sapiens) (UniProt P36888). The conditions noted are these: Compound concentration 1.0 uM.
The target in assay [20] is Ephrin type-A receptor 2 (Homo sapiens) (UniProt P29317). Conditions: Compound concentration 1.0 uM.
Assay [21] has as its target Cyclin-dependent kinase-like 4 (Homo sapiens) (UniProt Q5MAI5). Conditions: Compound concentration 1.0 uM.

Chain of Sigma intracellular receptor 2 (Q5BJF2 whole entry): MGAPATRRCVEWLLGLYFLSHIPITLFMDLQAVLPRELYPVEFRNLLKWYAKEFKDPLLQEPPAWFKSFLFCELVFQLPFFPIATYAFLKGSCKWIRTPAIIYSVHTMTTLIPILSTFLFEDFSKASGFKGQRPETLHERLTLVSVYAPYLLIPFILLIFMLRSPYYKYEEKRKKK
Chain of Mitogen-activated protein kinase kinase kinase kinase 4 (Homo sapiens) (O95819 2-1239 limits assumed): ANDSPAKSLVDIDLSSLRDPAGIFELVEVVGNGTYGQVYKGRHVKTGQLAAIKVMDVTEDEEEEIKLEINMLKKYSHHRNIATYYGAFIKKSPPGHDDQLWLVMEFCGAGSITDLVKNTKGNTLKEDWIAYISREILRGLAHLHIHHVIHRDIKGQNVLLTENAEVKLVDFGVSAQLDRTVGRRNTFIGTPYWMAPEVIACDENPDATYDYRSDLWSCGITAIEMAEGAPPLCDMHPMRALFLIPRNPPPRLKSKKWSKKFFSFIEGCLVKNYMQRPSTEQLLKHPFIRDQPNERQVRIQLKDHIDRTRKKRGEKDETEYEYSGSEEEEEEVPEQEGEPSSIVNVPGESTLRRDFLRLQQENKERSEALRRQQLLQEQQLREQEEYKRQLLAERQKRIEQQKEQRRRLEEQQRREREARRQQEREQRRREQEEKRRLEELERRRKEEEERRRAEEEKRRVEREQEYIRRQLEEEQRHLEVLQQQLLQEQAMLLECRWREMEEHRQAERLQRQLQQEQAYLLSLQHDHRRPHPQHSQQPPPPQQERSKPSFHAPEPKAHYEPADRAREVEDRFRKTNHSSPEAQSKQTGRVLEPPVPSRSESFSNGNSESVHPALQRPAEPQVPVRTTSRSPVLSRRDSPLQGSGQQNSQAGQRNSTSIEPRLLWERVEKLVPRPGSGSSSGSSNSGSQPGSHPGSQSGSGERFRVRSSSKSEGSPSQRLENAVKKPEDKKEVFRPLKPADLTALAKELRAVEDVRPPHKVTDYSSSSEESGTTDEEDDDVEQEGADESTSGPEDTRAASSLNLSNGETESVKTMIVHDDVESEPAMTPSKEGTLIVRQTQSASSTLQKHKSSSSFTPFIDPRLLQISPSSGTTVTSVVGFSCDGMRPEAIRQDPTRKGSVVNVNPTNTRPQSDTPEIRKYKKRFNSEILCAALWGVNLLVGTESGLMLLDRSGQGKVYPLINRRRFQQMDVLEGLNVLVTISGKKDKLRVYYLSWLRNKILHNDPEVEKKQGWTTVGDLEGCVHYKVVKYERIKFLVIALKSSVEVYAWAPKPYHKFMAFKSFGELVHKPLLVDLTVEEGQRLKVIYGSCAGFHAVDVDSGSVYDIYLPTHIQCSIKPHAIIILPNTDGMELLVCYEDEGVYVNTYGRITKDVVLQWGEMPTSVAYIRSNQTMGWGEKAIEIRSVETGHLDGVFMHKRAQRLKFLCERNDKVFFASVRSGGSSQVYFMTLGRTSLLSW
Chain of Aurora kinase B (Homo sapiens) (Q96GD4 whole entry): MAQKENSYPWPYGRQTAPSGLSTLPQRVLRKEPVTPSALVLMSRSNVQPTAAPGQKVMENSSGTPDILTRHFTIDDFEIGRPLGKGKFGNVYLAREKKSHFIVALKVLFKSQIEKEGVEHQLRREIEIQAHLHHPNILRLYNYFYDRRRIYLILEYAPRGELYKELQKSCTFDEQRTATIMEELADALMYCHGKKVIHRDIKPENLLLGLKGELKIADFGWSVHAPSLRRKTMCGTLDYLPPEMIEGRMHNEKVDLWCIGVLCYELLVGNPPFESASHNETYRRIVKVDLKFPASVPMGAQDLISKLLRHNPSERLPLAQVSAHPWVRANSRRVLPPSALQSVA
Chain of Cyclin-dependent kinase-like 4 (Homo sapiens) (Q5MAI5 whole entry): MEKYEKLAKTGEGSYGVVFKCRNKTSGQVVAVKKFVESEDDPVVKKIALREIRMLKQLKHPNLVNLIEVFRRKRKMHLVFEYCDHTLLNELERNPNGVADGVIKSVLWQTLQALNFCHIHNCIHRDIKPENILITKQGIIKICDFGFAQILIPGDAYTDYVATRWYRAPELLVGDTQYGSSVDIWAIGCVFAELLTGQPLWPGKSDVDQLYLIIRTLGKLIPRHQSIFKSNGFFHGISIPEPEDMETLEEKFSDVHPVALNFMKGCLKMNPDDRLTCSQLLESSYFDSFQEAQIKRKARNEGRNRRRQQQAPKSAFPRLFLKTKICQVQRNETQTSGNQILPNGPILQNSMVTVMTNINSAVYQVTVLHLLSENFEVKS
Chain of CDK3/cyclin E (Homo sapiens) (O96020 whole entry, looked up): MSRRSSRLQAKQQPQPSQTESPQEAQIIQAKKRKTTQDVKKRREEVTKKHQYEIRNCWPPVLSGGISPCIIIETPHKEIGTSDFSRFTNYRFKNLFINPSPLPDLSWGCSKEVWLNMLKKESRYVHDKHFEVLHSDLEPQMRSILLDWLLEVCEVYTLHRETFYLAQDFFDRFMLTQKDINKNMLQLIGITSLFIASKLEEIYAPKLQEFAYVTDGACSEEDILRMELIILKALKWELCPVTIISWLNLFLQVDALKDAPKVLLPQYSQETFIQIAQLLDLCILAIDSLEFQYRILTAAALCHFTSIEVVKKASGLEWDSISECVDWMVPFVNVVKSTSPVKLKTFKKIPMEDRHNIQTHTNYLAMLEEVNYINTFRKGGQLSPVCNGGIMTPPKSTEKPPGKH
Chain of CDK3/cyclin E (Homo sapiens) (P24864 whole entry, looked up): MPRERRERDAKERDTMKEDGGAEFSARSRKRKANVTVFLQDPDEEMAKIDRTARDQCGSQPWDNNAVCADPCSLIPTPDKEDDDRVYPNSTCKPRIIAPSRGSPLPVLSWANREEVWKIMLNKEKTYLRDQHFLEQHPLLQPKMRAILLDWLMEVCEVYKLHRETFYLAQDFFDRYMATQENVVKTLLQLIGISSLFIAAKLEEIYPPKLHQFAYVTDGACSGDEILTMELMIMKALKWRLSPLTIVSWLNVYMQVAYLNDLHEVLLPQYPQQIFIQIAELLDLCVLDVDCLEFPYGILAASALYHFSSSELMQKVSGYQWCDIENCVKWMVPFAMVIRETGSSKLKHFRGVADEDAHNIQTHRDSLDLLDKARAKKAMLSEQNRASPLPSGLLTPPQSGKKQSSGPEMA
Chain of CDK3/cyclin E (Homo sapiens) (Q00526 whole entry, looked up): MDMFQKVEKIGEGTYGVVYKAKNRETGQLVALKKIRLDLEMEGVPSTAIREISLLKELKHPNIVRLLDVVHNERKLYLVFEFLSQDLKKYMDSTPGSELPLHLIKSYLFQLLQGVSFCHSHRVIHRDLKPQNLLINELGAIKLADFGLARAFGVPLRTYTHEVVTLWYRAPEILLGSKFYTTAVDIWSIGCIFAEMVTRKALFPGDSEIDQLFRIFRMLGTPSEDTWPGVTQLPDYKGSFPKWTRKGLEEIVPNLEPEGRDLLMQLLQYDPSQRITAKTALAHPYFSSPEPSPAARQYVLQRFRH
Chain of Calcium/calmodulin-dependent protein kinase type 1 (Homo sapiens) (Q14012 whole entry, looked up): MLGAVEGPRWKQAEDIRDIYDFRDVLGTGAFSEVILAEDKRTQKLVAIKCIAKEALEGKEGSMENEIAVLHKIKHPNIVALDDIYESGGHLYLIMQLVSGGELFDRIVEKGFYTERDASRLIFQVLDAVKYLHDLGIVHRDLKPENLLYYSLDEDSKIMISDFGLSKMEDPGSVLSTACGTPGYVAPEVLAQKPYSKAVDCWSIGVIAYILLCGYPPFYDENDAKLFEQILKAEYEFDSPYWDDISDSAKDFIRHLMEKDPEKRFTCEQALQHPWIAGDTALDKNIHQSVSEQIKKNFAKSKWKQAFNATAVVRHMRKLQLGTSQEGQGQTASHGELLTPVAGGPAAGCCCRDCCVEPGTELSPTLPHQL
Chain of Serine/threonine-protein kinase SBK1 (Homo sapiens) (Q52WX2 whole entry): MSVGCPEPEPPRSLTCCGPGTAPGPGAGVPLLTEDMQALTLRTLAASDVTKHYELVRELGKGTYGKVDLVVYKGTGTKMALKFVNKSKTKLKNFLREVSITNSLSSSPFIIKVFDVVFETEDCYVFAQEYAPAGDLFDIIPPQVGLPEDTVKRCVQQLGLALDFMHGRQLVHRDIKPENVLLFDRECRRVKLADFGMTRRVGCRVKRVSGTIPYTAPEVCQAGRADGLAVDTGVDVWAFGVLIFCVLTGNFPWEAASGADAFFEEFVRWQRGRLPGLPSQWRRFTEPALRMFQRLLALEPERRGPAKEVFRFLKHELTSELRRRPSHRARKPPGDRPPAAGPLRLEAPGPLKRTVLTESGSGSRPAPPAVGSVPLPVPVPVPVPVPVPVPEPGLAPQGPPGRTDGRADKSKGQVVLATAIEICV
Chain of Dual specificity mitogen-activated protein kinase kinase 1 (Homo sapiens) (Q02750 whole entry): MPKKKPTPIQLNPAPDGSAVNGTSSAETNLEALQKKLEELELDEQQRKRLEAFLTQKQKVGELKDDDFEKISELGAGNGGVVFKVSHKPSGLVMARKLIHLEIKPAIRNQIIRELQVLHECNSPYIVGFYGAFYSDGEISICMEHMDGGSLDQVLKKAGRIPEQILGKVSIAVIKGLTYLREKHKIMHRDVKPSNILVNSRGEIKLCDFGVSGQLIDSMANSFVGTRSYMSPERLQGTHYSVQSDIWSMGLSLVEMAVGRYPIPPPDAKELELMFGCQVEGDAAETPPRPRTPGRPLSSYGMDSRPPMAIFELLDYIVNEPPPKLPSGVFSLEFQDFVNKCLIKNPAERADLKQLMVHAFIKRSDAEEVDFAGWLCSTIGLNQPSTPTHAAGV
Chain of Dual specificity mitogen-activated protein kinase kinase 2 (Homo sapiens) (P36507 whole entry): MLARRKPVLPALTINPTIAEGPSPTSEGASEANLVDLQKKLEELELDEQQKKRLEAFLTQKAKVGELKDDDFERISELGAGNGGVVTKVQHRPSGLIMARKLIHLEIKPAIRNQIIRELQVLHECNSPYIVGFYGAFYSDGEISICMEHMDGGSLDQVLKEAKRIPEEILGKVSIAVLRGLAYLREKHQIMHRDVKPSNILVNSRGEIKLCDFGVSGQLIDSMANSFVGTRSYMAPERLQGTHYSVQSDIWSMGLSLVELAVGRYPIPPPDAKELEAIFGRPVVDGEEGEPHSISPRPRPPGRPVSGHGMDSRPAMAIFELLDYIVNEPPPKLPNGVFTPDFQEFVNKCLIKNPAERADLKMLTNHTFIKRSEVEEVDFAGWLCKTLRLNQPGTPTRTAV

As usually defined, the Ki is a measure of affinity in units of concentration, obtained from inhibition or displacement. Turning to `Cc1nc(C2CCN(C(=O)c3ccc(OC(F)(F)F)cc3N)CC2)c2ncc(N3CCN(C)CC3)cc2n1` [BAY-693], in assay [1], the Ki amounted to 4.9 µM.
Take `CN1CCN(c2cnc3c(C4CCN(C(=O)c5ccc(OC(F)(F)F)cc5N)CC4)ncnc3c2)CC1` [BAY-885]: the % residual kinase activity is 98% in [2]; 122% in assay [3]; 96% in assay [4]; 103% in [5]; 94% in [6]; 106% in assay [7]. The % residual kinase activity in assay [8] was 109%; in assay [9], 112%; in [10], 115%; in [11], 106%; in assay [12], 124%; in assay [13], 99%. Besides, the % residual kinase activity was 105% in [14]; 109% in assay [15]; 98% in [16]; 94% in assay [17]; 88% in [18]; 100% in assay [19]. Moreover, the % residual kinase activity in assay [20] was 100%; in assay [21], 103%.
